Measured values reported in patent US7396814B2, “Metallopeptide compositions for treatment of sexual dysfunction” (Palatin Technologies, Inc., priority 1995, dated 2008).
Non-standard residues stand in square brackets, D forms with d. *: point of attachment. dPhe(4-Cl) = N[C@H](Cc1ccc(Cl)cc1)C(=O)O; Heptanoyl = CCCCCCC(=O)*; Nle = CCCC[C@H](N)C(=O)O; Bn = c1ccc(C*)cc1

Key:
[1] = biological target: T1, hMC4-R (Homo sapiens, UniProt P32245); assay: Competitive inhibition binding assay, 125I-NDP-MSH, hMC4-R; conditions: 1 μM metallopeptide; 0.4 nM 125I-NDP-MSH; hMC4-R membranes
T1 construct: expressed in transfected cells
Protocol: (§1) A competitive inhibition binding assay was conducted using membranes prepared from hMC3-R, hMC4-R, hMC5-R, and B-16 mouse melanoma cells (containing MC1-R) using 0.4 nM ^125I-NDP-MSH (0.2 nM for MC1-R) (New England Nuclear, Boston, Mass., USA) in 50 mM HEPES buffer containing 1 mM MgCl2, 2 mM CaCl2, and 5 mM KCl, at pH 7.2. The assay tube also contained a chosen concentration of the metallopeptides of this invention, at a 1 μM concentration, for determining inhibition of the binding of ^125I-NDP-MSH to its receptor. Non-specific binding was measured by complete inhibition of binding of ^125I-NDP-MSH in the assay in the presence of 1 μM α-MSH. Incubation was for 90 minutes at 37° C., after which the assay mixture was filtered and the membranes washed three times with ice cold buffer. The filter was dried and counted in a gamma counter for remaining radioactivity bound to the membranes. 100% specific binding was defined as the difference in radioactivity (cpm) bound to cell membranes in the absence and presence of 1 μM α-MSH. The cpm obtained in the presence of metallopeptides of this invention were normalized with respect to 100% specific binding to determine the percent inhibition of ^125I-NDP-MSH binding. Each assay was conducted in triplicate.

[2] = biological target: T2, hMC5-R (Homo sapiens, UniProt P33032); assay: Competitive inhibition binding assay, 125I-NDP-MSH, hMC5-R; conditions: 1 μM metallopeptide; 0.4 nM 125I-NDP-MSH; hMC5-R membranes
T2 construct: expressed in transfected cells
Protocol: as §1

[3] = biological target: T3, MC1-R (B-16 mouse melanoma cells) (Mus musculus, UniProt Q01727); assay: Competitive inhibition binding assay, 125I-NDP-MSH, MC1-R; conditions: 1 μM metallopeptide; 0.2 nM 125I-NDP-MSH; B-16 mouse melanoma cell membranes
T3 construct: membranes prepared from hMC3-R, hMC4-R, hMC5-R, and B-16 mouse melanoma cells (containing MC1-R); endogenous in cells; host or cells: B-16 mouse melanoma cells
Protocol: as §1

[4] = biological target: T4, hMC3-R (Homo sapiens, UniProt P41968); assay: Competitive inhibition binding assay, 125I-NDP-MSH, hMC3-R; conditions: 1 μM metallopeptide; 0.4 nM 125I-NDP-MSH; hMC3-R membranes
T4 construct: expressed in transfected cells
Protocol: as §1

T3 sequence (Q01727 whole entry): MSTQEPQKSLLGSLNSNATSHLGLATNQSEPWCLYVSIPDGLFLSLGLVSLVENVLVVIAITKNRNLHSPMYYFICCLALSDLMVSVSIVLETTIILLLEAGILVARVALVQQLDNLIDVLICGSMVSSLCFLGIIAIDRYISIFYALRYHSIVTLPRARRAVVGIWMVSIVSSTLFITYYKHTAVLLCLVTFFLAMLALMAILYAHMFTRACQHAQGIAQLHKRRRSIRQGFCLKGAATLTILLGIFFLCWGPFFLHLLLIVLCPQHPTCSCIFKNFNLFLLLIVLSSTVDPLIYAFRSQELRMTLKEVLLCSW
T2 sequence (P33032 whole entry): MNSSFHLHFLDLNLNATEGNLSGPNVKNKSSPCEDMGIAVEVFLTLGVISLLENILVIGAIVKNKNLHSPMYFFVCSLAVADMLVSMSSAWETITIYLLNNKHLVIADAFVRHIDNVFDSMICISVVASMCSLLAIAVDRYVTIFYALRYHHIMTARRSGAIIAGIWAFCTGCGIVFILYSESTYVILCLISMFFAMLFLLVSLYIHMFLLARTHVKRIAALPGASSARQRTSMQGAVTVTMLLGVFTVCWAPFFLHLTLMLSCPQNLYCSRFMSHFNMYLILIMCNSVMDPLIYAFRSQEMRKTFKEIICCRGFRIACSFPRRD
T4 sequence (P41968 whole entry): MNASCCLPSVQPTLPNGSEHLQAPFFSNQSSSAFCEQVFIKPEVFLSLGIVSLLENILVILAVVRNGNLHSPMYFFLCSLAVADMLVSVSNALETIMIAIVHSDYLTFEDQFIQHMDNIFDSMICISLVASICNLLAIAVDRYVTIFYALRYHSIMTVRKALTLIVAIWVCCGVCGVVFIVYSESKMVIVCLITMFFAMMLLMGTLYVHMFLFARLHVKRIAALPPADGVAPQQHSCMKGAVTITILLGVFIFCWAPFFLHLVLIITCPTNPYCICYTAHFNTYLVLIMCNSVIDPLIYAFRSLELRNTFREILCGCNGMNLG
T1 sequence (P32245 whole entry): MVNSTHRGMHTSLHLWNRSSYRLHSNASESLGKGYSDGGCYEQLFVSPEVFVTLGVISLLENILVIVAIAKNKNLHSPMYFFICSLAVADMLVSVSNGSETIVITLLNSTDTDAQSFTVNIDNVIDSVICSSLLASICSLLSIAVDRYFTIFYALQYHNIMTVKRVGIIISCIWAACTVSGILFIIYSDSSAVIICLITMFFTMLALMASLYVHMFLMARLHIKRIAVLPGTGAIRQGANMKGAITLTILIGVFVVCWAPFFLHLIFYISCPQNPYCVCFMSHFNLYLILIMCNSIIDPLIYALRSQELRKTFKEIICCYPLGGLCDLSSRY

Percent Inhibition at 1 μM MC4-R [1] [%]	Percent Inhibition at 1 μM MC5-R [2] [%]	Percent Inhibition at 1 μM MC1-R [3] [%]	Percent Inhibition at 1 μM MC3-R [4] [%]	Substance
23	9	14	0	Ac-[Nle]AH[dF]CR-OH
37	12	18	0	Ac-[Nle]AH[dF]RC-OH
27	23	26	3	Ac-[Nle]AH[dF]RGC-OH
38	26	30	13	Heptanoyl-S(Bn)[dPhe(4-Cl)]RC-NH2
